We go through four molecules from patent US20040248913A1, “(Pyridinyl and pyrimidyl) trienoic acid derivatives as retinoid x receptor modulators” (priority 2001, published 2004).

For one data set, the system named is RXRα:RAR heterodimer. Description: RXR:RAR heterodimer cotransfection assay in CV-1 cells. In kind it is cell-based, human. As to conditions: alone. The text has this: In the co-transfection assay, cloned cDNA for one or more IRs (e.g., human RARα, RXRα, or PPARγ), alone or in combination (i.e. for heterodimer assays) under the control of a constitutive promoter (e.g., the SV 40, RSV or CMV promoter) is introduced by transfection (a procedure to introduce exogenous genes into cells) into a background cell substantially devoid of endogenous IRs. These introduced gene(s) direct the recipient cells to make the IR protein(s) of interest. A further gene is also introduced (co-transfected) into the same cells in conjunction with the IR gene(s). This further gene, comprising the cDNA for a reporter protein, such as firefly luciferase (LUC), controlled by an appropriate hormone responsive promoter containing a hormone response element (HRE). This reporter plasmid functions as a reporter for the transcriptional-modulating activity of the target IR(s). Thus, the reporter acts as a surrogate for the products (mRNA then protein) normally expressed by a gene under control of the target receptor(s) and their native hormone(s).
Compounds of the present invention were also tested for the ability to synergize with an RAR or PPARγ agonist in the context of an RXR heterodimer. […] Efficacy of the compounds of the present invention in the agonist and synergy assays was calculated as the maximum response obtained over the range of the dose response curve relative to the maximum response obtained by the reference agonist. Antagonist efficacy was determined as a function (%) of maximal inhibition.
RAR suppresses RXR ligand binding and transactivation of typical RXR agonists via allosteric interactions. […] However, when RAR is occupied, typical RXR agonists activate the heterodimer. […] To examine the effects of the compounds of the present invention on the transcriptional properties of the RXR:RAR heterodimer, a heterodimer cotransfection assay as described above was employed.

The next data set concerns rodent models of NIDDM. Description: Rodent models of NIDDM / Type II Diabetes. In kind it is in vivo. An excerpt: (§1) Rodents that are genetically defective in the leptin pathway are commonly used as animal models of non-insulin dependant diabetes mellitus (NIDDM). db/db mice and ZDF rats develop frank diabetes that progresses to include β-cell failure and the accompanying precipitous drop in plasma insulin levels. […] All three rodent models were used to examine the efficacy of oral dosing with compounds of the invention on diabetes, insulin sensitivity, food consumption and body weight gain.
(§2) Mice (obtained from Jackson Laboratory), ZDF rats (obtained from Genetic Models Inc.) and fa/fa rats (obtained from either Charles River, or Harlan) are maintained on 12-hour light/dark cycle. Mice (age 28-42 days) are caged in groups of 5-6. Rats (age 7 weeks) are housed individually. All animals are allowed ad libitum access to water and food (Purina 5015 for mice and 5008 for rats). Compounds are administered at the specified doses by oral gavage on the morning of each day of any experiment. Blood samples are obtained 3 hours after dosing from fed animals under anesthesia and collected into heparinized capillary tubes from the tail vein.
On the other hand, full antagonists have no effect on glucose, triglycerides or the thyroid status in these same model systems. We have identified a specific subset of rexinoids that maintain the desirable insulin sensitizing activity and eliminate both the suppression of the thyroid axis and triglyceride elevations. These compounds are heterodimer selective modulators of RXR activity. They bind to RXR with high affinity (generally Ki<50 nM) and produce potent synergistic activation of the RXR:PPARγ heterodimer. This synergistic activation of PPARγ in vitro is presumably a major determinant of the antidiabetic efficacy of compounds in vivo.

The test system of data set [1] is mice transgenic for the human apolipoprotein A-I gene. As to the kind of experiment: Transgenic mice carrying the human apo A-I gene. Format: in vivo, mouse. The text has this: Mice transgenic for the human apolipoprotein A-I gene (obtained from Jackson Laboratory) are used to evaluate PPARγ mediated effects on high density lipoprotein (HDL) cholesterol. The mice are handled as described above for db/db mice, except that they are fed Purina 5001.

For another data set, the system named is db/db mice. As to the kind of experiment: db/db mice, daily oral gavage. In kind it is in vivo, mouse. As to conditions: 7 week old db/db mice.
Source text: as §1, §2

On to `CC1=C(/C=C/C(C)=C/C=C/C(C)=C/C(=O)O)C(C)(C)CCC1` [ATRA, all-trans retinoic acid, reference compound], for which the “RXR:RAR agonist activity / transactivation alone (in words)” value with RXRα:RAR heterodimer is “strongly transactivate”.
Take `Cc1cc2c(cc1C1(c3ccc(C(=O)O)cn3)CC1)C(C)(C)CCC2(C)C` [LG100268]: in the data set with rodent models of NIDDM, the Blood glucose levels result is listed as “lower blood glucose levels”, the Insulin sensitizing activity entry was “efficacious insulin sensitizers”, the Thyroid hormone axis result is listed as “suppress the thyroid hormone axis” and the Triglycerides entry is given as “raise triglycerides”. The Triglycerides result in data set [1] is reported as “raises triglycerides”.
For the molecule `C/C(=C\c1ccc(C(=O)O)cc1)c1ccc2c(c1)C(C)(C)CCC2(C)C` [TTNPB, (E)-4-[2-(5,6,7,8-tetrahydro-5,5,8,8-tetramethyl-2-naphthalenyl)-1-propenyl]benzoic acid, reference compound], in the data set on RXRα:RAR heterodimer, the “RXR:RAR agonist activity / transactivation alone (in words)” value is “strongly transactivate”.
For `CN(C)C(=N)N=C(N)N` [metformin], the Plasma glucose result with db/db mice (300 mg/kg by daily oral gavage) is “lowers plasma glucose”. Besides, the “Efficacy on plasma glucose over time” value with db/db mice (300 mg/kg daily, 3 weeks subsequent to first week) is listed as “efficacy of metformin decreases”.
